Assay results: publication PMC10135033, “Sulfonamidoboronic Acids as “Cross-Class” Inhibitors of an Expanded-Spectrum Class C Cephalosporinase, ADC-33, and a Class D Carbapenemase, OXA-24/40: Strategic Compound Design to Combat Resistance in Acinetobacter baumannii” (Antibiotics, 2023)
Like-named read-outs stand apart in the source and are kept apart here.

How the values were obtained:
Format in all cases: cell-based
[1] = tested on: E. coli DH10B, ADC-33 in pBCSK-; experiment: Antimicrobial susceptibility testing, broth microdilution; conditions: Escherichia coli
Method: (§1) Based upon the inhibitor kinetics (Ki determinations), CR167 and the sulfonamidoboronic acid 6b were tested against E. coli strains expressing ADC-7 and ADC-33 cloned into pBCSK- (DH10B) (Table 3).
(§2) blaADC-7 pBCSK- and blaADC-33 pBCSK- were cloned and expressed in E. coli DH10B cells as previously described.
(§3) Testing of susceptibility to standard antibiotics was performed with broth microdilution according to CLSI guidelines. MICs for CAZ, CTX, FEP, and IMI were determined using cation-adjusted Mueller–Hinton broth according to CLSI methods, and CR167 or 6b was used at a fixed concentration of 10 mg/L. All MICs were interpreted according to the 2022 Clinical and Laboratory Standards Institute (CLSI) guidelines.

[2] = tested on: E. coli DH10B, ADC-7 in pBCSK-; experiment: as above; conditions: Escherichia coli
Method: as §1, §2, §3

[3] = tested on: A. baumannii ATCC 17978 native ADC KO, ADC-33 pQF1266; experiment: as above; conditions: Acinetobacter baumannii
Method: (§4) The inhibitory effects of both compounds were tested against ADC-33 and OXA-24/-40 in A. baumannii, their native host. ATCC 17978, with its intrinsic chromosomal ADC knocked out (intrinsic OXA still present), was used in these experiments. In this isolate, the ADC MICs were not lowered by the inhibitors as much as they were against the E. coli background (Table 4).
Plasmid pBCSK- containing the blaADC-33 gene was digested with PvuII, which released the blaADC-33 gene, along with the lac promoter, which drives expression. This PvuII fragment was cloned into the SmaI site of the pQF1266 plasmid.
(§5) pWH1266 is a vector that replicates in A. baumannii, and the […] pWH1266 construct was generated as follows. The TEM gene was removed using inverse PCR, and an Xba1 site was engineered into the vector. blaOXA-24/40 and its upstream XerC/XerD were amplified from strain NM55. The amplified gene was cloned into the Xba1 site of the altered pWH1266 vector. The construct was confirmed using PCR and sequencing. Both blaADC-33 pQF1266 and […] pWH1266 were then expressed in A. baumannii ATCC 17978 that had the intrinsic chromosomal ADC gene knocked out.
(§6) The chromosomal blaADC-51 gene in ATCC 17978 was deleted and replaced with an apramycin resistance cassette using the recombineering method described by Tucker et al.. Primers used for this deletion were: Del AmpC-apra.For: […]; and Del AmpC-apra.Rev: […]. The correct deletion mutant was confirmed using PCR and sequencing.
as §3

[4] = tested on: A. baumannii ATCC 17978 native ADC KO, OXA-24 pWH1266; experiment: as above; conditions: Acinetobacter baumannii
Method: as §4, §5, §6, §3

[5] = tested on: clinical A. baumannii isolate PR323 (OXA-24, OXA-65, ADC-218); experiment: Antimicrobial susceptibility testing, clinical isolate, broth microdilution; conditions: Acinetobacter baumannii
Method: (§7) Clinical A. baumannii isolates containing ADC-33 or OXA-24/-40 in combination with various other well-defined β-lactamases were also tested against CR167 and 6b (Table 5).
(§8) The clinical A. baumannii isolates used to test the β-lactamase inhibitors were selected from a previously well-characterized collection in our lab. They were chosen as they had either ADC-33 and/or OXA-24 in combination with other known β-lactamases (for specific combinations, see Table 5).
as §3

[6] = tested on: clinical A. baumannii isolate PR328 (OXA-23, OXA-82, ADC-33); experiment: as above; conditions: Acinetobacter baumannii
Method: as §7, §8, §3

[7] = tested on: clinical A. baumannii isolate PR378 (OXA-24, OXA-65, TEM-1); experiment: as above; conditions: Acinetobacter baumannii
Method: as §7, §8, §3

[8] = tested on: clinical A. baumannii isolate PR396 (OXA-82, ADC-33); experiment: as above; conditions: Acinetobacter baumannii, inhibitor at 10 mg/L
Method: as §7, §8, §3

[9] = tested on: clinical A. baumannii isolate PR408 (OXA-24, OXA-71, ADC-212); experiment: as above; conditions: Acinetobacter baumannii
Method: as §7, §8, §3

[10] = tested on: clinical A. baumannii isolate PR462 (OXA-24, OXA-65, ADC-214); experiment: as above; conditions: Acinetobacter baumannii, inhibitor at 10 mg/L
Method: as §7, §8, §3

[11] = tested on: clinical A. baumannii isolate PR474 (OXA-23, OXA-24, OXA-65, ADC-218); experiment: as above; conditions: Acinetobacter baumannii
Method: as §7, §8, §3

[12] = ATCC17978, read-out: MIC of CAZ with BLI
[13] = ATCC17978, read-out: MIC of CTX with BLI
[14] = ATCC17978, read-out: MIC of FEP with BLI
[15] = ATCC17978, read-out: MIC of IMI with BLI
[16] = inhibitor at 10 mg/L, PR323, read-out: MIC of CAZ with BLI
[17] = inhibitor at 10 mg/L, PR323, read-out: MIC of CTX with BLI
[18] = inhibitor at 10 mg/L, PR328, read-out: MIC of CAZ with BLI
[19] = inhibitor at 10 mg/L, PR378, read-out: MIC of CAZ with BLI
[20] = inhibitor at 10 mg/L, PR378, read-out: MIC of CTX with BLI
[21] = inhibitor at 10 mg/L, PR408, read-out: MIC of CAZ with BLI
[22] = inhibitor at 10 mg/L, PR408, read-out: MIC of CTX with BLI
[23] = inhibitor at 10 mg/L, PR474, read-out: MIC of CAZ with BLI
[24] = inhibitor at 10 mg/L, PR474, read-out: MIC of CTX with BLI

Structure (SMILES)	MIC ([1]; read-out: MIC of CAZ with BLI) [mg/L]	MIC ([1]; read-out: MIC of CTX with BLI) [mg/L]	MIC ([2]; read-out: MIC of CAZ with BLI) [mg/L]	MIC ([2]; read-out: MIC of CTX with BLI) [mg/L]	MIC ([2]; read-out: MIC of FEP with BLI) [mg/L]	MIC [3, 12] [mg/L]	MIC [3, 13] [mg/L]	MIC [3, 14] [mg/L]	MIC [4, 12] [mg/L]	MIC [4, 13] [mg/L]	MIC [4, 14] [mg/L]	MIC [4, 15] [mg/L]	MIC ([5]; read-out: MIC of IMI with BLI) [mg/L]	MIC [5, 16] [mg/L]	MIC [5, 17] [mg/L]	MIC ([6]; read-out: MIC of IMI with BLI) [mg/L]	MIC [6, 18] [mg/L]	MIC [7, 19] [mg/L]	MIC [7, 20] [mg/L]	MIC ([8]; read-out: MIC of CAZ with BLI) [mg/L]	also measured
O=C(O)c1cccc(CS(=O)(=O)NCB(O)O)c1 [CR167]	64	2	4	2	0.12	32	16	4	8	16	32	128	128	4100	2050	128	1020	32	64	1020	MIC ([6]; read-out: MIC of CTX with BLI): 128 mg/L; MIC ([7]; read-out: MIC of IMI with BLI): 128 mg/L; MIC ([8]; read-out: MIC of CTX with BLI): 256 mg/L; MIC ([8]; read-out: MIC of IMI with BLI): 64 mg/L; MIC ([9]; read-out: MIC of IMI with BLI): 128 mg/L; MIC [9, 21]: 512 mg/L; MIC [9, 22]: 1020 mg/L; MIC ([10]; read-out: MIC of CAZ with BLI): 64 mg/L; MIC ([10]; read-out: MIC of CTX with BLI): 256 mg/L; MIC ([10]; read-out: MIC of IMI with BLI): 64 mg/L; MIC ([11]; read-out: MIC of IMI with BLI): 128 mg/L; MIC [11, 23]: 4100 mg/L; MIC [11, 24]: 2050 mg/L
C[C@@H](NS(=O)(=O)Cc1cccc(C(=O)O)c1)B(O)O [6b]	64	4	4	2	0.12	64	32	4	8	16	32	128	128	4100	2050	128	2050	32	64	2050	MIC ([6]; inhibitor at 10 mg/L, PR328, read-out: MIC of CTX with BLI): 256 mg/L; MIC ([7]; inhibitor at 10 mg/L, PR378, read-out: MIC of IMI with BLI): 256 mg/L; MIC ([8]; read-out: MIC of CTX with BLI): 512 mg/L; MIC ([8]; read-out: MIC of IMI with BLI): 64 mg/L; MIC ([9]; read-out: MIC of IMI with BLI): 128 mg/L; MIC [9, 21]: 512 mg/L; MIC [9, 22]: 1020 mg/L; MIC ([10]; read-out: MIC of CAZ with BLI): 256 mg/L; MIC ([10]; read-out: MIC of CTX with BLI): 512 mg/L; MIC ([10]; read-out: MIC of IMI with BLI): 64 mg/L; MIC ([11]; read-out: MIC of IMI with BLI): 128 mg/L; MIC [11, 23]: 4100 mg/L; MIC [11, 24]: 2050 mg/L
